According to patent US20210112813A1, “HERBICIDAL COMPOSITION AND USE THEREOF” (NANTONG JIANGSHAN AGROCHEMICAL & CHEMICALS CO., LTD., priority 2019, published 2021):

Tests used:
Type in all cases: in vivo
Lambsquarters [1] = assay: Greenhouse pot test, pre-emergence soil treatment, visual control effect 30 days after treatment, Gowing method
Amaranthusretroflexus [2] = assay: Field plot test, non-cultivated weeds, pre-emergence soil treatment; conditions: Table 8, dose 600 ga.i./hm^2
Experimental: (§1) The present application also conducted a medicinal efficacy test on weeds on the formulation examples containing herbicide active component A and active component B by the field plot test method, and clarified the control effect of the composition on non-cultivated weeds.
(§2) According to the different components of different formulation examples, pre-emergence soil treatment, early post-emergence and post-emergence stem and leaf spray treatment were carried out respectively. The spraying device was Singapore Linong HD400 hand-operating knapsack sprayer (No. H17001), working pressure: […], spray rate: 640 mL/min, adjustable cone spraying nozzle (325787), spraying nozzle height: 0.5 m, spray width: 0.85 m, walking speed: about 16.7 m/min, and spray volume: […];

Crabgrass = assay: as above; conditions: Table 8, dose 600 ga.i./hm^2
Experimental: as §1, §2

Lambsquarters [3] = assay: as above; conditions: Table 8, dose 600 ga.i./hm^2
Experimental: as §1, §2

Bristlegrass [4] = assay: as above; conditions: Table 8, dose 600 ga.i./hm^2
Experimental: as §1, §2

Bristlegrass [5] = assay: Greenhouse pot test, pre-emergence soil treatment, visual control effect 30 days after treatment, Gowing method
Experimental: (§3) In the present application, indoor combined action of the compound of herbicide active component A and B on weeds was measured to determine the combined effect of the composition on weeds, wherein the structure of the active component A was as follows:
(§4) The weed cultivation method was as follows: quantitative weed seeds abutilon and bristlegrass were respectively sown in a paper cup filled with nutrient soil with a diameter of 7 cm, and then cultivated in the greenhouse after covering the soil, suppressing and watering. The post-emergence stem and leaf treatment was performed when the grass weeds grew to 5-7 leaf stage, broad-leaved weeds grew to 6-8 leaf stage; the pre-emergence soil treatment was performed the second day after sowing, and the early post-emergence treatment was performed after sowing and before emergence; the experiment was repeated 3 times. After the treatment and drug solution naturally dried, the weeds were placed in the greenhouse to be managed according to conventional methods. According to the suppression or death of the weeds, a visual control effect investigation was conducted 30 days after the treatment. The application adopted the Gowing method to evaluate the combined effect of the proposed composition.
(§5) X—Weed control effect when the amount of herbicide component A is P;
(§6) Y—Weed control effect when the amount of herbicide component B is Q;
(§7) E0—Theoretical control effect when the amount of herbicide component A is […];
(§8) E—The measured control effect after the herbicide component A and the herbicide component B are mixed according to the above ratio.
(§9) When E−E0>10%, it is synergism; when E−E0<−10%, it is antagonism; when E−E0 value is between ±10%, it is addition.

Bristlegrass [6] = assay: Greenhouse pot test (treatment timing not given, Tables 6 and 7), visual control effect, Gowing method
Experimental: as §3, §4, §5, §6, §7, §8, §9

Abutilon [7] = assay: Greenhouse pot test (treatment timing not given, Table 6), visual control effect, Gowing method
Experimental: as §3, §4, §5, §6, §7, §8, §9

Amaranthusretroflexus [8] = assay: Field plot test, non-cultivated weeds, post-emergence stem and leaf spray; conditions: Table 10, dose 100 ga.i./hm^2
Experimental: as §1, §2

Abutilon [9] = assay: as above; conditions: Table 10, dose 100 ga.i./hm^2
Experimental: as §1, §2

Bristlegrass [10] = assay: as above; conditions: Table 10, dose 100 ga.i./hm^2
Experimental: as §1, §2

Echinochloacrusgalli [11] = assay: as above; conditions: Table 10, dose 100 ga.i./hm^2
Experimental: as §1, §2

Amaranthusretroflexus [12] = assay: Greenhouse pot test (treatment timing not given, Table 7), visual control effect, Gowing method
Abutilon [13] = assay: Greenhouse pot test, post-emergence stem and leaf treatment, visual control effect 30 days after treatment, Gowing method
Experimental: as §3, §4, §5, §6, §7, §8, §9

Bristlegrass [14] = assay: as above
Experimental: as §3, §4, §5, §6, §7, §8, §9

Amaranthusretroflexus [15] = assay: Field plot test, non-cultivated weeds, early post-emergence
Experimental: as §1, §2

Abutilon [16] = assay: as above
Experimental: as §1, §2

Bristlegrass [17] = assay: as above
Experimental: as §1, §2

Echinochloacrusgalli [18] = assay: as above
Experimental: as §1, §2

Abutilon [19] = assay: Greenhouse pot test, pre-emergence soil treatment, visual control effect 30 days after treatment, Gowing method
Experimental: as §3, §4, §5, §6, §7, §8, §9

In the case of `COCC(C)N(C(=O)CCl)c1c(C)csc1C` (stereo not shown) [Dimethoxamide], the “Measured value E” value (Lambsquarters [1]; Table 1, dose 75 ga.i./hm^2) is reported as 20%, the “Measured value E” value (Lambsquarters [1]; Table 1, dose 150 ga.i./hm^2) is reported as 35% and the “Control effect, Amaranthusretroflexus” value (Amaranthusretroflexus [2]) is reported as 55. For the same compound, the “Control effect, Crabgrass” value (Crabgrass) was 70, the “Control effect, Lambsquarters” value (Lambsquarters [3]) was 70 and the “Control effect, Bristlegrass” value (Bristlegrass [4]) was 50. For the same compound, the “Measured value E” value (Bristlegrass [5]; Table 1, dose 75 ga.i./hm^2) was 25% and the “Measured value E” value (Bristlegrass [5]; Table 1, dose 150 ga.i./hm^2) was 40%.

With `CP(=O)(O)CCC(N)C(=O)O` (stereo not shown) [Glufosinate-ammonium] the “Measured value E” value (Bristlegrass [6]; Table 6, dose 30 ga.i./hm^2) was 30%, the “Measured value E” value (Bristlegrass [6]; Table 6, dose 120 ga.i./hm^2) was 55% and the “Measured value E” value (Abutilon [7]; dose 30 ga.i./hm^2) was 40%. For the same compound, the “Measured value E” value (Abutilon [7]; dose 120 ga.i./hm^2) was 60%, the “Control effect, Amaranthusretroflexus” value (Amaranthusretroflexus [8]) was 70 and the “Control effect, Abutilon” value (Abutilon [9]) was 65. For the same compound, the “Control effect, Bristlegrass” value (Bristlegrass [10]) was 50 and the “Control effect, Echinochloacrusgalli” value (Echinochloacrusgalli [11]) was 60.

In the case of `CCc1cccc(C)c1N(C(=O)CCl)[C@@H](C)COC` [S-metolachlor], the “Measured value E” value (Lambsquarters [1]; Table 2, dose 90 ga.i./hm^2) is reported as 45%, the “Measured value E” value (Lambsquarters [1]; Table 2, dose 135 ga.i./hm^2) is reported as 65% and the “Control effect, Amaranthusretroflexus” value (Amaranthusretroflexus [2]) is reported as 75. For the same compound, the “Control effect, Crabgrass” value (Crabgrass) was 70, the “Control effect, Lambsquarters” value (Lambsquarters [3]) was 50 and the “Control effect, Bristlegrass” value (Bristlegrass [4]) was 60. For the same compound, the “Measured value E” value (Bristlegrass [5]; Table 2, dose 90 ga.i./hm^2) was 35% and the “Measured value E” value (Bristlegrass [5]; Table 2, dose 135 ga.i./hm^2) was 60%.

With Acetofluran the “Measured value E” value (Amaranthusretroflexus [12]; dose 60 ga.i./hm^2) was 35%, the “Measured value E” value (Amaranthusretroflexus [12]; dose 90 ga.i./hm^2) was 55% and the “Measured value E” value (Bristlegrass [6]; Table 7, dose 60 ga.i./hm^2) was 5%. The “Measured value E” value (Bristlegrass [6]; Table 7, dose 90 ga.i./hm^2) was 30%, the “Control effect, Amaranthusretroflexus” value (Amaranthusretroflexus [8]) was 75 and the “Control effect, Abutilon” value (Abutilon [9]) was 75. The “Control effect, Bristlegrass” value (Bristlegrass [10]) was 55 and the “Control effect, Echinochloacrusgalli” value (Echinochloacrusgalli [11]) was 70.

`Cn1nc(C(F)(F)F)c(CS(=O)(=O)C2=NOC(C)(C)C2)c1OC(F)F` [Pyroxasulfone] was tested, and the “Measured value E” value (Abutilon [13]; Table 5, dose 45 ga.i./hm^2) was 50%, the “Measured value E” value (Abutilon [13]; Table 5, dose 90 ga.i./hm^2) was 65% and the “Measured value E” value (Bristlegrass [14]; Table 5, dose 45 ga.i./hm^2) was 70%. For the same compound, the “Measured value E” value (Bristlegrass [14]; Table 5, dose 90 ga.i./hm^2) was 85%, the “Control effect, Amaranthusretroflexus” value (Amaranthusretroflexus [15]; Table 9, dose 200 ga.i./hm^2) was 60 and the “Control effect, Abutilon” value (Abutilon [16]; Table 9, dose 200 ga.i./hm^2) was 30. For the same compound, the “Control effect, Bristlegrass” value (Bristlegrass [17]; Table 9, dose 200 ga.i./hm^2) was 35, the “Control effect, Echinochloacrusgalli” value (Echinochloacrusgalli [18]; Table 9, dose 200 ga.i./hm^2) was 15 and the “Measured value E” value (Abutilon [19]; Table 4, dose 90 ga.i./hm^2) was 40%. The “Measured value E” value (Abutilon [19]; Table 4, dose 180 ga.i./hm^2) was 55%, the “Measured value E” value (Bristlegrass [5]; Table 4, dose 90 ga.i./hm^2) was 60% and the “Measured value E” value (Bristlegrass [5]; Table 4, dose 180 ga.i./hm^2) was 75%.

`CCc1cccc(C)c1N(C(=O)CCl)C(C)COC` (stereo not shown) [metolachlor] was tested, and the “Measured value E” value (Lambsquarters [1]; Table 2, dose 90 ga.i./hm^2) was 50%, the “Measured value E” value (Lambsquarters [1]; Table 2, dose 135 ga.i./hm^2) was 55% and the “Control effect, Amaranthusretroflexus” value (Amaranthusretroflexus [2]) was 60. For the same compound, the “Control effect, Crabgrass” value (Crabgrass) was 60, the “Control effect, Lambsquarters” value (Lambsquarters [3]) was 50 and the “Control effect, Bristlegrass” value (Bristlegrass [4]) was 45. For the same compound, the “Measured value E” value (Bristlegrass [5]; Table 2, dose 90 ga.i./hm^2) was 40% and the “Measured value E” value (Bristlegrass [5]; Table 2, dose 135 ga.i./hm^2) was 60%.

`CP(=O)(O)CC[C@H](N)C(=O)O.N` [Glufosinate-P-ammonium] was tested, and the “Measured value E” value (Bristlegrass [6]; Table 6, dose 30 ga.i./hm^2) was 40%, the “Measured value E” value (Bristlegrass [6]; Table 6, dose 120 ga.i./hm^2) was 65% and the “Measured value E” value (Abutilon [7]; dose 30 ga.i./hm^2) was 45%. For the same compound, the “Measured value E” value (Abutilon [7]; dose 120 ga.i./hm^2) was 65%, the “Control effect, Amaranthusretroflexus” value (Amaranthusretroflexus [8]) was 80 and the “Control effect, Abutilon” value (Abutilon [9]) was 70. The “Control effect, Bristlegrass” value (Bristlegrass [10]) was 45 and the “Control effect, Echinochloacrusgalli” value (Echinochloacrusgalli [11]) was 60.

With `CCc1cnc(C2=NC(C)(C(C)C)C(=O)N2)c(C(=O)O)c1` (stereo not shown) [Imazethapyr] the “Measured value E” value (Abutilon [13]; Table 5, dose 22.5 ga.i./hm^2) was 10%, the “Measured value E” value (Abutilon [13]; Table 5, dose 45 ga.i./hm^2) was 20% and the “Measured value E” value (Bristlegrass [14]; Table 5, dose 22.5 ga.i./hm^2) was 45%. For the same compound, the “Measured value E” value (Bristlegrass [14]; Table 5, dose 45 ga.i./hm^2) was 50%, the “Control effect, Amaranthusretroflexus” value (Amaranthusretroflexus [15]; Table 9, dose 100 ga.i./hm^2) was 70 and the “Control effect, Abutilon” value (Abutilon [16]; Table 9, dose 100 ga.i./hm^2) was 45. For the same compound, the “Control effect, Bristlegrass” value (Bristlegrass [17]; Table 9, dose 100 ga.i./hm^2) was 50, the “Control effect, Echinochloacrusgalli” value (Echinochloacrusgalli [18]; Table 9, dose 100 ga.i./hm^2) was 60 and the “Measured value E” value (Abutilon [19]; Table 4, dose 45 ga.i./hm^2) was 5%. The “Measured value E” value (Abutilon [19]; Table 4, dose 90 ga.i./hm^2) was 25%, the “Measured value E” value (Bristlegrass [5]; Table 4, dose 45 ga.i./hm^2) was 30% and the “Measured value E” value (Bristlegrass [5]; Table 4, dose 90 ga.i./hm^2) was 45%.

For `CCOc1cc(Oc2ccc(C(F)(F)F)cc2Cl)ccc1[N+](=O)[O-]` [Oxyfluorfen], the “Measured value E” value (Amaranthusretroflexus [12]; dose 22.5 ga.i./hm^2) was 30%, the “Measured value E” value (Amaranthusretroflexus [12]; dose 45 ga.i./hm^2) was 60% and the “Measured value E” value (Bristlegrass [6]; Table 7, dose 22.5 ga.i./hm^2) was 15%. The “Measured value E” value (Bristlegrass [6]; Table 7, dose 45 ga.i./hm^2) was 50%, the “Control effect, Amaranthusretroflexus” value (Amaranthusretroflexus [8]) was 80 and the “Control effect, Abutilon” value (Abutilon [9]) was 80. The “Control effect, Bristlegrass” value (Bristlegrass [10]) was 65 and the “Control effect, Echinochloacrusgalli” value (Echinochloacrusgalli [11]) was 85.

In the case of `COC[C@H](C)N(C(=O)CCl)c1c(C)csc1C` [Dimethoxamid-P], the “Measured value E” value (Lambsquarters [1]; Table 1, dose 75 ga.i./hm^2) is reported as 35%, the “Measured value E” value (Lambsquarters [1]; Table 1, dose 150 ga.i./hm^2) is reported as 50% and the “Control effect, Amaranthusretroflexus” value (Amaranthusretroflexus [2]) is reported as 80. The “Control effect, Crabgrass” value (Crabgrass) was 70, the “Control effect, Lambsquarters” value (Lambsquarters [3]) was 75 and the “Control effect, Bristlegrass” value (Bristlegrass [4]) was 55. The “Measured value E” value (Bristlegrass [5]; Table 1, dose 75 ga.i./hm^2) was 30% and the “Measured value E” value (Bristlegrass [5]; Table 1, dose 150 ga.i./hm^2) was 55%.
